According to publication PMC7694948, “Mitochondrial Targeting in an Anti-Austerity Approach Involving Bioactive Metabolites Isolated from the Marine-Derived Fungus Aspergillus sp” (Marine Drugs, 2020):
Read-outs that look alike come from different tables or passages of the source. Blank lines part the entries; values can stand above or below the compound they belong to.

Key:
[1] = test system: human pancreatic carcinoma PANC-1 cells; test: Cytotoxicity against PANC-1 cells under glucose-deficient or general culture conditions (WST-8); format: cell-based; conditions: for IC50: Homo sapiens, 12 h treatment, WST-8; for S.I. (selectivity index): difference in IC50 values for general culture and glucose-deficient media
Experimental: PANC-1 cells were maintained in DMEM supplemented with heat-inactivated 10% FBS and kanamycin (50 µg/mL) and grown at 37 °C in a 5% CO2 atmosphere. […] The general culture medium—that is, basal medium containing 10% FBS and […] glucose (final concentration, 25 mM)—was used for comparison. The assay was performed as previously described. Briefly, PANC-1 cells (1 × 10^4 cells/100 µL in 96-well plastic plates) were preincubated in DMEM containing 10% FBS for 24 h. The medium was then changed with either the general glucose medium or glucose-deficient medium to induce adaption to nutrient starvation. After 12-h incubation, serially diluted samples were added to the media. Then, the cells were incubated for an additional 12 h at 37 °C in a 5% CO2 atmosphere. Cell proliferation was identified using WST-8. The IC50 values were determined by linear interpolation of the growth inhibition curve. We assessed the selectivity of the antiproliferative activity (S.I.) on the basis of the difference in the IC50 values for the general culture and glucose-deficient media.

[2] = target: Mitochondrial complex III (coenzyme Q cytochrome c oxidoreductase) (Bos taurus, UniProt P00125+P00157+P13272); test: MitoCheck Complex Activity Assay, complex III; format: biochemical, bovine
Chain of Mitochondrial complex III (coenzyme Q cytochrome c oxidoreductase) (P00125 85-325): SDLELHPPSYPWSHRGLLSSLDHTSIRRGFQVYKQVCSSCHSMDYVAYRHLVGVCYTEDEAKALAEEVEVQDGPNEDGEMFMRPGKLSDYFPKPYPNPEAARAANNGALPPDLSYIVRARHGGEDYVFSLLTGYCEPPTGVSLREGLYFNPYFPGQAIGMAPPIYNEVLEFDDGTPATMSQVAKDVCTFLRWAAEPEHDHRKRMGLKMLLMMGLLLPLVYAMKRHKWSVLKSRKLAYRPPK
Chain of Mitochondrial complex III (coenzyme Q cytochrome c oxidoreductase) (P00157 whole entry): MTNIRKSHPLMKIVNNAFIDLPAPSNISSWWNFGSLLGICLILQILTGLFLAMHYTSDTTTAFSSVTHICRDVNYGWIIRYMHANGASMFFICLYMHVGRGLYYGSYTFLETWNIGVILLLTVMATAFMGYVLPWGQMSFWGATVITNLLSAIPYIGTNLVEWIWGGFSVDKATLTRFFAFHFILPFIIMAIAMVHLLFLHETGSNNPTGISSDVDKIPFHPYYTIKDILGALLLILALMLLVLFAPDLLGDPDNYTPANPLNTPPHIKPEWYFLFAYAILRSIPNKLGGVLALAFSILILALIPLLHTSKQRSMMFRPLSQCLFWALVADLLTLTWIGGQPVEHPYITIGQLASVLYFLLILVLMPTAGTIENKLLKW
Chain of Mitochondrial complex III (coenzyme Q cytochrome c oxidoreductase) (P13272 whole entry): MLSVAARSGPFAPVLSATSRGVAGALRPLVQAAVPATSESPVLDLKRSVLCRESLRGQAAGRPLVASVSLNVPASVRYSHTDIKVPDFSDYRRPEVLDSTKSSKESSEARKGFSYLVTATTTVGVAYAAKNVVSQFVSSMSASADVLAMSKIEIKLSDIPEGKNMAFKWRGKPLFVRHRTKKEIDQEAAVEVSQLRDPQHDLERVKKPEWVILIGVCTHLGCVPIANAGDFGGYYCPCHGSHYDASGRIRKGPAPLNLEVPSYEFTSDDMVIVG
Experimental: (§1) The inhibitory activity of compound 1 on the mitochondrial electron transport chain (complexes I–V) was analyzed using MitoCheck Complex Activity Assay kits (Cayman Chemical) following the manufacturer’s instructions. The kits measured the enzymatic activity of each complex derived from bovine heart mitochondria in the following systems: Mitochondrial complex I (NADH oxidase/coenzyme Q reductase) activity was determined by measuring the decrease in NADH oxidation, which is reflected by a decrease in absorbance at 340 nm. Mitochondrial complex II (succinate dehydrogenase/coenzyme Q reductase) activity was assessed on the basis of the reduction rate of 2, 6-dichlorophenolindophenol (protonated by reduced coenzyme Q), which is reflected by a decrease in absorbance at 600 nm. Mitochondrial complex III (coenzyme Q cytochrome c oxidoreductase) activity was determined on the basis of the cytochrome c reduction rate, which is reflected by an increase in absorbance at 550 nm. Mitochondrial complex IV (cytochrome c oxidase) activity was determined by measuring the cytochrome c oxidation rate, which is reflected by a decrease in absorbance at 550 nm. Mitochondrial complex V (F1F0 ATP synthase) activity was determined by the NADH oxidation rate, which can be monitored at 340 nm.

[3] = test system: oxygen consumption by PANC-1 cells; parameters: method as in PMID 32002808, PMID 26204821; conditions: cited from earlier work
[4] = test system: mitochondrial membrane potential of human pancreatic carcinoma PANC-1 cells; test: Mitochondrial membrane potential (JC-1 MitoMP Detection Kit); format: cell-based; conditions: PANC-1 adapted to glucose-deficient medium; 1 h treatment; JC-1 Red/Green ratio
Experimental: Figure 2 Effect of compounds 1 and 2 on the mitochondrial membrane potential of human pancreatic carcinoma PANC-1 cells. PANC-1 cells that adapted to glucose-deficient medium in the 96-well plates were treated with the indicated concentrations of the compounds for 1 h. Next, JC-1 working solution was added for measuring the mitochondrial membrane potential, and the plate was incubated for 30 min. The fluorescence intensity of the cells was measured using a Tecan Infinite M1000 microplate reader at Ex 485 nm and Em 535 nm (Green color fluorescence) and Ex 535 nm and Em 595 nm (Red color fluorescence). Differences were considered significant at * p < 0.05.
The mitochondrial membrane potential of PANC-1 cells was evaluated using the JC-1 MitoMP Detection Kit (Dojindo Laboratories) following the manufacturer’s instructions. […] The fluorescence intensity of the cells was assessed using an Infinite M1000 microplate reader (Tecan Group Ltd., Mannedorf, Switzerland) at Ex 485 nm and Em 535 nm (Green color fluorescence) and Ex 535 nm and Em 595 nm (Red color fluorescence). The ratio of the two fluorescence intensities (Red vs. Green) was then calculated.

[5] = test system: oxygen consumption by PANC-1 cells; test: Oxygen consumption (Oxygen Consumption Rate Assay Kit); format: cell-based, human; conditions: PANC-1 in general glucose medium
Experimental: Figure 3 Effect of compounds 1 and 2 on the oxygen consumption by PANC-1 cells. The precultured PANC-1 cells in the 96-well plates were incubated in general culture medium for 12 h at 37 °C. The medium was then replaced with fresh medium; subsequently, the test compound was added, followed by addition of the phosphorescent probe to measure the oxygen consumption. The signals were measured with a Tecan Infinite M1000 microplate reader by using the time-resolved mode. Differences were considered significant at * p < 0.05. CCCP: carbonyl cyanide m-chlorophenylhydrazone.
The oxygen consumption of PANC-1 cells was analyzed using the Oxygen Consumption Rate Assay Kit (Cayman Chemical) following the manufacturer’s instructions. Briefly, precultured PANC-1 cells (8.0 × 10^4 cells) in black/clear bottom 96-well plates (Corning Incorporated) were incubated for 12 h at 37 °C in general glucose medium. […] The signals were measured using an Infinite M1000 microplate reader (Tecan Group Ltd., Zurich, Switzrland) in the time-resolved mode at Ex 380 nm and Em 650 nm for 180 min, with a 1-min time interval. Linear regression was applied after subtracting the blank, and the oxygen consumption rate was determined by the slope of each signal profile.

[6] = target: T1, Mitochondrial complex II (succinate dehydrogenase/coenzyme Q reductase) (Bos taurus, UniProt P31039+P35720+Q3T189+Q95123); test: MitoCheck Complex Activity Assay, complex II; format: biochemical, bovine; conditions: for IC50: bovine heart mitochondria
T1 construct: enzymatic activity of each complex derived from bovine heart mitochondria; purchased Cayman Chemical; host or cells: bovine heart mitochondria (tissue-derived, supplied in kit)
T1 sequence (P31039 44-665): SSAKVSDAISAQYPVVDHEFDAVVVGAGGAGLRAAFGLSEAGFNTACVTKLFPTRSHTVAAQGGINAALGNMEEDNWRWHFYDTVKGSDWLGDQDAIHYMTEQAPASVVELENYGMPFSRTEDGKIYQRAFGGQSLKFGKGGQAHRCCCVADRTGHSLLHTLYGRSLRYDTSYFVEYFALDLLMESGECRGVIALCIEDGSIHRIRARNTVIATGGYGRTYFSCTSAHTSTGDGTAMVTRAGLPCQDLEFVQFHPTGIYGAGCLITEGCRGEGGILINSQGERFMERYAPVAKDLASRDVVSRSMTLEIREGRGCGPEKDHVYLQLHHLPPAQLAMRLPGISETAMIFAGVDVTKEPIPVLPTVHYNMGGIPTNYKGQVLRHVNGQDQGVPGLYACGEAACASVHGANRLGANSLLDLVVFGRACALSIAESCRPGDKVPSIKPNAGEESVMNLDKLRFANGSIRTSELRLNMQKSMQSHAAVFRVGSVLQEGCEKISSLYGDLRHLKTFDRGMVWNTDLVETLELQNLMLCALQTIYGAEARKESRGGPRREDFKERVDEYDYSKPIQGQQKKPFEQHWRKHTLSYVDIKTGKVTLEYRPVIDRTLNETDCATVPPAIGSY
T1 sequence (Q3T189 29-280): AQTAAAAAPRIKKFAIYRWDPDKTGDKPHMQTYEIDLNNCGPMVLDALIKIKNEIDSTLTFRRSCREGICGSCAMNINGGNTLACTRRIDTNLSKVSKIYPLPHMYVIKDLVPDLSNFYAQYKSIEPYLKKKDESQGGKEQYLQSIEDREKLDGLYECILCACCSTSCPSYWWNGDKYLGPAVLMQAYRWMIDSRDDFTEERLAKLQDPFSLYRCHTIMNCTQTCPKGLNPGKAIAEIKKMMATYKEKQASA
T1 sequence (P35720 30-169): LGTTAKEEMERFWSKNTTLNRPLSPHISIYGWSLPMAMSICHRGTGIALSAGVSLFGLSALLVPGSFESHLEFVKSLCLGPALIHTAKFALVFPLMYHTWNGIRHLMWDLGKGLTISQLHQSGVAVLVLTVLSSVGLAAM
T1 sequence (Q95123 56-158): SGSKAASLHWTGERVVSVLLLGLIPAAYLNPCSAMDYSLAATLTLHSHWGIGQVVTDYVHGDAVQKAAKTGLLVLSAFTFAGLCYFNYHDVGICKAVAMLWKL
Experimental: as §1

[7] = target: T2, Mitochondrial complex IV (cytochrome c oxidase) (Bos taurus, UniProt P00396+P00415+P68530); test: MitoCheck Complex Activity Assay, complex IV; format: biochemical; conditions: bovine heart mitochondria
T2 construct: enzymatic activity of each complex derived from bovine heart mitochondria; purchased Cayman Chemical; host or cells: bovine heart mitochondria (tissue-derived, supplied in kit)
Experimental: as §1, with “The” for “The inhibitory activity of compound 1 on the mitochondrial electron transport chain (complexes I–V) was analyzed using MitoCheck Complex Activity Assay kits (Cayman Chemical) following the manufacturer’s instructions. The”

U937 cell lines = test system: U937 cell lines; parameters: method as in PMID 20796195; conditions: U937, general culture conditions; cited from earlier work
NALM6 cell lines = test system: NALM6 cell lines; parameters: method as in PMID 28810515; conditions: NALM6, general culture conditions; cited from earlier work
SUPB15 cell lines = test system: SUPB15 cell lines; parameters: method as in PMID 28810515; conditions: SUPB15, general culture conditions; cited from earlier work
K562 cell lines = test system: K562 cell lines; parameters: method as in PMID 26479318; conditions: K562, general culture conditions; cited from earlier work
CCRF-ADR5000 cells = test system: CCRF-ADR5000 cells; parameters: method as in PMID 29707146; conditions: CCRF-ADR5000, general culture conditions; cited from earlier work
breast cancer cells = test system: breast cancer cells; parameters: method as in PMID 25574462; conditions: general culture conditions; cited from earlier work
cervical carcinoma cells = test system: cervical carcinoma cells; parameters: method as in PMID 24071573; conditions: general culture conditions; cited from earlier work
colon cancer cells = test system: colon cancer cells; parameters: method as in PMID 26707141, PMID 20837130; conditions: general culture conditions; cited from earlier work
lung cancer cells = test system: lung cancer cells; parameters: method as in PMID 26479318, PMID 21725807; conditions: general culture conditions; cited from earlier work
[8] = test system: nasopharyngeal carcinoma cells; parameters: method as in PMID 27694907; conditions: general culture conditions; cited from earlier work
[9] = test system: hepatocellular carcinoma cells; parameters: method as in PMID 28042511, PMID 29710489; conditions: general culture conditions; cited from earlier work
[10] = test system: glucose-6-phosphate dehydrogenase; parameters: method as in PMID 26479318; conditions: against breast cancer cells; cited from earlier work
[11] = target: Mitochondrial complex I (NADH oxidase/coenzyme Q reductase) (Bos taurus, UniProt P03887+P17694+P25708+P42026); test: MitoCheck Complex Activity Assay, complex I; format: biochemical, bovine
Experimental: as §1

[12] = target: Mitochondrial complex V (F1F0 ATP synthase) (Bos taurus, UniProt P00829+P00847+P19483+P32876); test: MitoCheck Complex Activity Assay, complex V; format: biochemical, bovine
Experimental: as §1

P-388 cells = test system: P-388 cells; parameters: method as in PMID 18758101; conditions: cited from earlier work
K-562 cells = test system: K-562 cells; parameters: method as in PMID 18758101; conditions: cited from earlier work
HL-60 cells = test system: HL-60 cells; parameters: method as in PMID 18758101; conditions: cited from earlier work
A-549 cells = test system: A-549 cells; parameters: method as in PMID 18758101; conditions: cited from earlier work
SF-268 cells = test system: SF-268 cells; parameters: method as in PMID 18758101; conditions: 100 µg/mL (352 µM); cited from earlier work
MCF-7 cells = test system: MCF-7 cells; parameters: method as in PMID 18758101; conditions: 100 µg/mL (352 µM); cited from earlier work
NCI-H460 cells = test system: NCI-H460 cells; parameters: method as in PMID 18758101; conditions: 100 µg/mL (352 µM); cited from earlier work
[13] = PANC-1, glucose-deficient medium, 12 h adaptation
[14] = conversion of 10 µg/mL, read-out: IC50

SMILES: CCCCCC[C@H]1C(=O)O[C@H](C)[C@H](NC(=O)c2cccc(NC=O)c2O)C(=O)O[C@@H](C)[C@@H]1OC(=O)CC(C)C [Antimycin A, reference compound]
IC50 ([1]; PANC-1, general glucose medium): 288 ± 0.5 µM | IC50 [1, 13]: 0.0003 µM | S.I. (selectivity index) [1]: 960,000 | IC50 [2]: 0.03 ± 0.01 µM | effect on oxygen consumption [3]: reduces oxygen consumption

SMILES: N#CC(C#N)=NNc1cccc(Cl)c1 [CCCP, carbonyl cyanide m-chlorophenylhydrazone]
effect on oxygen consumption [3]: increase the oxygen consumption

SMILES: COc1cc(O)c2c(c1)C(=O)c1cc(C)cc(O)c1C2=O [Compound 1, physcion]
IC50 ([1]; PANC-1, general glucose medium): 1017 ± 0.05 µM | IC50 [1, 13]: 6 ± 0.1 µM | S.I. (selectivity index) [1]: 169.5 | effect on mitochondrial membrane potential [4]: dose-dependently decrease | effect on oxygen consumption [5]: inhibit oxygen consumption to a similar extent as antimycin A | IC50 [6]: 90 ± 0.11 µM | inhibition at 100 µM [2]: 9% | IC50 ([2]; bovine heart mitochondria): > 100 µM | IC50 [7]: 34 ± 0.3 µM | IC50 (U937 cell lines): 27.9 µM | IC50 (NALM6 cell lines): 5 µM | IC50 (SUPB15 cell lines): 5 µM | IC50 (K562 cell lines): 12.5 µM | IC50 (CCRF-ADR5000 cells): 74.8 µM | IC50 (breast cancer cells): 45.4 µM | IC50 (cervical carcinoma cells): 100 µM | IC50 (colon cancer cells): 10 to 50 µM | IC50 (lung cancer cells): 15.1 to 35.1 µM | IC50 [8]: 20 µM | IC50 [9]: 10 µM | inhibition of glucose-6-phosphate dehydrogenase [10]: specific inhibitor

inhibition at 100 µM ([6]; 100 µM): 24% | IC50 [6]: > 100 µM | inhibition at 100 µM [2]: 6% | IC50 ([2]; bovine heart mitochondria): > 100 µM | IC50 [7]: 20 ± 0.3 µM | inhibition of complex V ([12]; 100 µM): not inhibited | IC50 ([12]; bovine heart mitochondria): > 100 µM
SMILES: C/C=C/C=C/c1cc2c(C=O)c(O)c(CC=C(C)C)cc2o1 [Compound 2, 2-(2′,3-epoxy-1′,3′,5′-heptatrienyl)-6-hydroxy-5-(3-methyl-2-butenyl) benzaldehyde]
IC50 ([1]; PANC-1, general glucose medium): 859 ± 1 µM | IC50 [1, 13]: 1.7 ± 0.05 µM | selective growth-inhibitory activity under glucose-deficient vs general culture conditions ([1]; PANC-1): 505 fold | effect on mitochondrial membrane potential [4]: dose-dependently decrease | effect on oxygen consumption [5]: inhibit oxygen consumption to a similar extent as antimycin A | inhibition at 100 µM ([11]; 100 µM): 18% | IC50 ([11]; bovine heart mitochondria): > 100 µM | IC50 (P-388 cells): higher than 10 µg/mL | IC50 (P-388 cells; [14]): > 35.2 µM | IC50 (K-562 cells): higher than 10 µg/mL | IC50 (K-562 cells; [14]): > 35.2 µM | IC50 (HL-60 cells): higher than 10 µg/mL | IC50 (HL-60 cells; [14]): > 35.2 µM | IC50 (A-549 cells): higher than 10 µg/mL | IC50 (A-549 cells; [14]): > 35.2 µM | cytotoxic effect (SF-268 cells): more than 90% | cytotoxic effect (MCF-7 cells): more than 90% | cytotoxic effect (NCI-H460 cells): more than 90%

SMILES: COC(=O)[C@@]12Oc3ccc(-c4ccc5c(c4O)C(O)C4=C(O)C[C@H](C)[C@@H](O)[C@]4(C(=O)OC)O5)c(O)c3C(=O)C1=C(O)C[C@H](C)[C@H]2O (stereo partly drawn) [secalonic acid D]
effect on oxygen consumption [3]: increase the oxygen consumption

SMILES: O=C(CC(=O)C(F)(F)F)c1cccs1 [thenoyltrifluoroacetone, reference compound]
IC50 [6]: 68 ± 0.01 µM
